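Five concentrations, 48 hours, 96-well plates. The concentration for full growth arrest is given as TGI.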
Tests used:
Assay in all cases: inhibition of tumour cell growth, NCI panel, 48 h
A498 renal = system: A498 renal
CAKI-1 renal = system: CAKI-1 renal
CCRF-CEM leukemia = system: CCRF-CEM leukemia
DU-145 prostate = system: DU-145 prostate
HCC-2998 colon = system: HCC-2998 colon
HOP-92 NSCLC = system: HOP-92 NSCLC
HT29 colon = system: HT29 colon
M14 melanoma = system: M14 melanoma
OVCAR-3 ovarian = system: OVCAR-3 ovarian
OVCAR-5 ovarian = system: OVCAR-5 ovarian
SF-295 CNS = system: SF-295 CNS
SF-539 CNS = system: SF-539 CNS
SW-620 colon = system: SW-620 colon
U251 CNS = system: U251 CNS
UACC-257 melanoma = system: UACC-257 melanoma
K-562 leukemia = system: K-562 leukemia
NCI-H226 lung = system: NCI-H226 lung
RXF 393 renal = system: RXF 393 renal

| SMILES | TGI (A498 renal) [µM] | TGI (CAKI-1 renal) [µM] | TGI (CCRF-CEM leukemia) [µM] | TGI (DU-145 prostate) [µM] | TGI (HCC-2998 colon) [µM] | TGI (HOP-92 NSCLC) [µM] | TGI (HT29 colon) [µM] | TGI (M14 melanoma) [µM] | TGI (OVCAR-3 ovarian) [µM] | TGI (OVCAR-5 ovarian) [µM] | TGI (SF-295 CNS) [µM] | TGI (SF-539 CNS) [µM] | TGI (SW-620 colon) [µM] | TGI (U251 CNS) [µM] | TGI (UACC-257 melanoma) [µM] | TGI (K-562 leukemia) [µM] | TGI (NCI-H226 lung) [µM] | TGI (RXF 393 renal) [µM] |
| --- | --- | --- | --- | --- | --- | --- | --- | --- | --- | --- | --- | --- | --- | --- | --- | --- | --- | --- |
| CCOC(=O)C1(C(=O)OCC)CC(=O)[C@@]2(C1)OCC[C@H]1OC(=O)C[C@H]12 | > 100 | > 100 | > 100 | > 100 | > 100 | > 100 | > 100 | > 100 | > 100 | > 100 | > 100 | > 100 | > 100 | > 100 | > 100 |  |  |  |
| O=c1[nH]c(Nc2cccc(Br)c2)nc2nc[nH]c12 |  | > 100 | > 100 | > 100 | > 100 | > 100 | > 100 | > 100 | > 100 | > 100 | > 100 |  | > 100 |  | > 100 | > 100 | > 100 | > 100 |
| CC1C(c2ccc3c(c2)OCO3)c2cc3c(cc2OC1N1CCCCC1)OCO3 (stereo not given) |  | 79.9 | > 100 | > 100 | > 100 |  | > 100 | > 100 | > 100 | > 100 | > 100 | > 100 | > 100 |  | > 100 | > 100 |  |  |
| CC(=O)NNC(=S)/N=C/c1c(O)cc(C)oc1=O |  | > 100 |  | > 100 | > 100 | > 100 | > 100 | > 100 | > 100 | > 100 | > 100 | > 100 | > 100 | > 100 | > 100 |  | > 100 |  |
| Cc1cc(O)c(/C=N/c2nc(-c3cccc([N+](=O)[O-])c3)cs2)c(=O)o1 |  | > 100 |  | > 100 | > 100 | > 100 | > 100 | > 100 | > 100 | > 100 | > 100 | > 100 | > 100 | > 100 | > 100 |  | > 100 |  |
| O=c1c(O)c(-c2cc(O)c(O)cc2O)oc2cc(O)c(C3OC(CO)C(O)C(O)C3O)c(O)c12 (stereo not given) | > 100 |  |  | > 100 |  | > 100 | > 100 | > 100 | > 100 | > 100 | > 100 | > 100 | > 100 | > 100 | > 100 | > 100 | > 100 |  |
| CCc1n[nH]c(=O)n1NC(=O)c1ccccc1C(=O)O |  |  | > 100 | > 100 | > 100 | > 100 | > 100 | > 100 | > 100 | > 100 | > 100 | > 100 | > 100 | > 100 | > 100 | > 100 |  | > 100 |
| CN[C@@H](C)[C@H](OP(=O)(O)OC1[C@@H](O)[C@H](O)C(O)[C@H](O)[C@@H]1O)c1ccccc1 (stereo not given in full) | > 100 | > 100 | > 100 | > 100 | > 100 | > 100 | > 100 | > 100 | > 100 | > 100 | > 100 | > 100 | > 100 | > 100 | > 100 |  | > 100 |  |
| CCOC(=O)C(C)(C)/C=C\C(Cl)=C(Cl)Cl |  | > 100 | > 100 | > 100 | > 100 | > 100 | > 100 | > 100 | > 100 | > 100 | > 100 | > 100 | > 100 |  | > 100 | > 100 | > 100 | > 100 |
| O=C(NCCCCNCCCNC(=O)c1cc(-c2ccccc2)nc2ccccc12)c1cc(-c2ccccc2)nc2ccccc12 |  | 3.82 |  | 3.8 | 3.09 | 3.01 | 3.1 |  | 2.99 |  | 3.17 | 3.81 | 3.1 | 3.32 | 3.36 |  | 3.26 | 3.97 |
| Fc1cc(-c2ncc(Cl)cc2Cl)c2cccccc1-2 |  | > 100 |  | > 100 | > 100 |  | > 100 | > 100 | > 100 | > 100 | > 100 | > 100 |  |  | > 100 |  | > 100 | > 100 |
| COC(OC)(c1ccccc1)C(I)I |  | 24.1 | 22.7 | > 67.7 | > 58.3 | 26.7 | 34.9 | 15.2 | 28.7 | 33.1 | > 52.7 | 17.6 | > 37.1 | 33 | 8.73 | > 35.4 | 42.4 | 10.4 |
| CC([C@H]1CCC2C3CCC4CC5(CC[C@]4(C)C3CC[C@@]21C)c1ccccc1C(=O)N5C)N(C)C (stereo not given in full) | > 100 | > 100 | > 100 |  | > 100 | > 100 | 68.2 | 38.7 | > 100 | > 100 | 48.5 | 71.8 | > 100 | > 100 |  | 92.2 |  | > 100 |
| COc1cc(C(=O)Nc2c3ccccc3nc3ccccc23)cc(OC)c1OC |  | > 67 | > 100 | > 100 | > 100 | > 100 | > 100 | > 100 | > 100 | > 100 | > 100 | > 100 | > 100 | > 100 | > 100 | > 100 | > 100 | > 100 |
| CCOC(=O)COc1c(OC)cc(C2C3=C(COC3=O)Oc3cc4c(cc32)OCO4)cc1OC (stereo not given) |  | 38.1 | 0.965 | > 29.1 | 30.7 | > 45.1 | 8.29 | > 100 | 78.4 | > 100 | > 26.3 | 43 | > 65.9 | 81.9 | > 100 | 12.2 | > 100 |  |
| N#Cc1ccc(-c2nc3ccc(Cl)cc3[nH]2)cc1 |  | > 100 | > 100 |  | > 100 | > 100 | > 100 | > 100 | > 100 |  | > 100 | > 100 | > 100 | > 100 |  | > 100 | > 100 | > 100 |
| CC(C)CC1[C@@H](OCc2ccccc2)COS(=O)(=O)N1Cc1ccccc1 (stereo not given in full) | > 100 | > 100 | > 100 | > 100 |  | > 100 | > 100 | > 100 | > 100 | > 100 | > 100 | > 100 | > 100 | > 100 | > 100 | > 100 | > 100 |  |
| COc1ccc(CCc2ccc(O)c(C(=O)O)c2)cc1OC |  | > 100 | > 100 | > 100 | > 100 | > 100 | > 100 | > 100 | > 100 | > 100 | > 100 | > 100 |  | > 100 | > 100 | > 100 | > 100 | > 100 |
| CC(Oc1ccc(OCC2CCCCC2)cc1)C(=O)O (stereo not given) |  |  | > 100 |  |  |  | > 100 | > 100 | > 100 |  | > 100 | > 100 | > 100 | > 100 | > 100 | > 100 | > 100 |  |
| O=C(O)c1cc(O)c2c(c1)Cc1cccc(O)c1C2=O | > 100 |  | > 100 | > 100 | > 100 | 41.3 | > 100 | 55.2 | 36.9 | > 100 | 50.5 |  | > 100 | 37.3 | 67 | > 100 | 59.5 |  |
| O=C1/C(=C/c2cccs2)NC(=S)N1CN1CCOCC1 | > 100 |  | > 100 | > 100 |  | > 100 | > 100 | > 100 | > 100 | > 100 | > 100 |  | > 100 | > 100 | > 100 | > 100 | > 100 |  |
| Cc1ccc(/C=N/NC2=NCCN2)s1 |  | > 100 |  | > 100 | > 100 | > 100 | > 100 | > 100 | > 100 | > 100 | > 100 | > 100 | > 100 | > 100 | > 100 | > 100 | > 100 | > 100 |
| OCCN=C1c2ccccc2C2C(c3ccccc31)C1c3ccccc3C(=NCCO)c3ccccc3C21 (stereo not given) |  | 39.5 | 35.9 | 54.3 | 40.5 |  | 34.8 | 42.3 | 40.3 | 60.7 | 30.6 | 36.5 | > 100 | 41.3 | 69.2 | 40.2 | 17.8 | 51.8 |
